Assay results taken from patent US20050106100A1, “Compounds containing matrix metalloproteinase substrates and methods of their use” (priority 2003, published 2005).

Experiments:
[1] = tested on: Aminopeptidase N; assay: Aminopeptidase N cleavage of test substrates (HPLC); type: biochemical; conditions: 1 mM test substrate, 0.02 U APN, 37° C., 25 minutes
Experimental: Aminopeptidase N cleaves amino acids at the N-terminus of proteins and peptides attached to another amino acid. The final attachment in our test substrates consists of an amino acid linked to a hydrazide. The cleavage of this amino acid by aminopeptidases exposes the reactive hydrazide species. Our goal was to study the cleavage of amide bond between an amino acid and a hydrazide by aminopeptidase N. A stock solution of test substrates was prepared in 100% DMSO at a concentration of 25 mM. The stock soluton (6 μL) was added to buffer (50 mM Hepes/pH 7.5, 10 mM CaCl2, 0.1% Brij) for a final concentration of 1 mM test substrate in the reaction. To this reaction mix 0.02 U of the enzyme (APN) was added, the solution was mixed, and immediately 67.5 μL of the mix was transferred to HPLC vials containing 33.2 μL of acetic acid for t=0 minute measurement. The rest of the mix in the test tube was incubated at 37° C. for 25 minutes. At the 25 minutes time point 67.5 μL of the mix was transferred to the HPLC vial containing 33.2 μl of acetic acid for t=25 minute measurement. […] The peak areas were integrated and the substrate peak area was used to determine rate constant k in the following equation: K={(% hydrolyzed/100)*[S]}/[E]*[time] where • S=test substrate concentration in μmoles • E=aminopeptidase N concentration in units/ml • K=μmoles of substrate hydrolyzed/minute/unit enzyme
The procedures of Examples 63 and 64 were used to prepare these additional enamides. The ability of aminopeptidase-N (APN) to remove the terminal amino acid was determined by using the procedure described in Example 46.

[2] = tested on: THP-1 cells; assay: Lipid bilayer insertion / cell binding of test substrates; type: cell-based, human; conditions: live cell suspensions
Experimental: This assay was designed to study localization of test substrates in lipid bilayers of cells. THP-1 cell line a human monocytic cell line was used in this assay. THP-1 cells were washed with phosphate buffered saline (PBS) and 2×10^6 cells were used for each reaction in a 150 μL reaction volume. Test substrates were added to these cell suspensions to give a final concentration of 0.15 mM in the reaction. The reactions were incubated at 37° C. for 1 hour. The test compound in the supernatant was analyzed by HPLC and quantified. The level of compound in the supernatant in the presence and absence of cells was determined and the following ratio was generated: R=Level of compound in absence of cells/level of compound in the presence of cells
The ratio increases with increased binding to cells. A ratio of 1 denotes no binding to cells.

[3] = tested on: Aminopeptidase N; assay: Aminopeptidase N cleavage of test substrates (HPLC); type: biochemical; conditions: n = 2; for Rate, hydrolysis of N-terminal residue by APN (value in parenthesis): enzyme concentration […] 10^3 U; for Rate, hydrolysis of N-terminal residue by APN: enzyme concentration […] 10^4 U

| SMILES | Rate of hydrolysis (min^−1, U^−1) [1] | Rate, hydrolysis of N-terminal residue by APN (value in parenthesis) [3] | Rate, hydrolysis of N-terminal residue by APN [3] | also measured |
| --- | --- | --- | --- | --- |
| CC(C)C[C@H](N)C(=O)NNc1ccc(C(=O)NCCNC(=O)c2ccc(N/N=C/c3ccccc3S(=O)(=O)O)nc2)cc1 [Example 6, 2-{(1E)-2-[(5-{N-[2-({4-[((2S)-2-Amino-4-methylpentanoylamino)amino]phenyl}carbonylamino)ethyl]carbamoyl}(2-pyridyl))amino]-2-azavinyl}benzenesulfonic Acid] | 0 μmoles μmoles (min^−1, U^−1) | – | – | – |
| CC(C)C[C@H](N)C(=O)NNC(=O)c1ccc(N/N=C\c2ccccc2S(=O)(=O)O)nc1 [Example 7, 2-[2-({5-[N-((2S)-2-Amino-4-methylpentanoylamino)carbamoyl](2-pyridyl)}amino)(1Z)-2-azavinyl]benzenesulfonic Acid] | 1.2 μmoles μmoles (min^−1, U^−1) | – | – | – |
| CC(C)C[C@H](N)C(=O)NNC(=O)c1ccc(CNC(=O)c2ccc(N/N=C/c3ccccc3S(=O)(=O)O)nc2)cc1 [Example 8, 2-[(1E)-2-({5-[N-({4-[N-((2S)-2-Amino-4-methylpentanoylamino)carbamoyl]phenyl}methyl)carbamoyl](2-pyridyl)}amino)-2-azavinyl]benzenesulfonic Acid] | 0.6 μmoles μmoles (min^−1, U^−1) | – | – | – |
| COc1ccc2cc(C(=O)NCCCCCC(=O)NNC(=O)[C@@H](N)CC(C)C)c(=O)oc2c1 [Example 9, N-((2S)-2-Amino-4-methylpentanoylamino)-6-[(7-methoxy-2-oxo(2H-chromen-3-yl))carbonylamino]hexanamide] | 0.62 μmoles μmoles (min^−1, U^−1) | – | – | – |
| CC(C)C[C@H](N)C(=O)Nc1ccc(COC(=O)NNC(=O)CCCCCNC(=O)c2ccc(N/N=C/c3ccccc3S(=O)(=O)O)nc2)cc1 [Example 24, 2-((1E)-2-{[5-(N-{5-[N-({[4-((2S)-2-Smino-4-methylpentanoylamino)phenyl]methoxy}carbonylamino)carbamoyl]pentyl}carbamoyl)(2-pyridyl)]amino}-2-azavinyl)benzenesulfonic Acid] | 0.52 μmoles μmoles (min^−1, U^−1) | – | – | – |
| O=C(CCCCCCCc1ccc(O)cc1)NCCNC(=O)c1ccc(N/N=C/c2ccccc2S(=O)(=O)O)nc1 [Example 26, 2-((1E)-2-Aza-2-{[5-(N-{2-[8-(4-hydroxyphenyl)octanoylamino]ethyl}-carbamoyl)(2-pyridyl)]amino}vinyl)benzenesulfonic Acid] | – | – | – | association with cells (in words) [2]: will associate with cells |
| CC(=O)NCCCCCC/C=C/NC(=O)[C@@H](N)CC(C)C.O=CO [Example 63, N-[(1E)-8-(Acetylamino)oct-1-enyl](2S)-2-amino-4-methylpentanamide, Formic Acid Salt] | – | 0.167 mmol substrate · min^−1 · U enzym^−1 | 0.202 mmol substrate · min^−1 · U enzym^−1 | – |
| CCC/C=C(\CCC)NC(=O)[C@H](C)NC(=O)[C@@H](N)CC(C)C [Example 332] | – | 0.802 mmol substrate · min^−1 · U enzym^−1 | 1.89 mmol substrate · min^−1 · U enzym^−1 | – |
| CCC/C=C(\CCC)NC(=O)[C@@H](N)CC(C)C [Example 333] | – | 0.209 mmol substrate · min^−1 · U enzym^−1 | 0.264 mmol substrate · min^−1 · U enzym^−1 | – |
